Patent publication US20030185864A1, “Preventives or remedies for atopic dermatitis” (priority 2000, published 2003)

Columns and labels:
[1] = test system: epidermal ceramide synthesis; assay: Evaluation of the amount of epidermal ceramide synthesis in hairless mice; format: in vivo, hairless mouse (SKH1:hr/hr:BR); details: for Relative amount of total ceramide synthesis (%) / Relative amount of ceramide III synthesis (%): relative to untreated mice; for Relative amount of ceramide III synthesis (%): 200 μl to dorsal skin once a day for one month, ceramide III = ceramides 1 and 2
Experimental: Test Compositions 1 to 5 were obtained by preparing 30% by weight aqueous ethanol solutions containing 0, 1.0, 3.0, 5.0 and 10.0% by weight, respectively, of N-acetyl-trans-4-hydroxy-L-proline. The pH values of the aqueous solutions were adjusted to 4.5 with sodium hydroxide.
Each of Test Compositions 1 to 5 was applied at 200 μl to the entire dorsal area as the tested region of each hairless mouse (SKH1:hr/hr:BR, male, 7 week old, available from Charles River Japan, Inc.) once a day for one month. The mice were used as four animals per each group.
Before starting of the application and one month after starting of the application, epidermal lipids were extracted from the entire dorsal area as the tested region of each mouse, and the activity of N-acetyl-trans-4-hydroxy-L-proline to synthesize ceramide was evaluated by measuring the ceramide content.
The epidermal lipids were obtained by extraction with 95% ethanol and further extracting the extract with hexane:methanol (2:3), followed by drying. The resulting epidermal lipids were dissolved in chloroform and separated by using silica gel thin layer chromatography in a manner similar to the method of Imokawa et al. [Journal of Investigative Dermatology, 96, 523 (1991)], and then the ceramide content was measured using a flying-spot scanning densitometer (manufactured by Shimadzu Corporation, CS-9000).
The ceramide content was calculated in accordance with the following equation, as the relative value to the change in the amount of ceramide synthesis in untreated mice.
Relative amount of ceramide synthesis (%)=[(A1×B2)/(A2×B1)]×100
A1: Ceramide content after application in tested mice
A2: Ceramide content before application in tested mice
B1: Ceramide content after application in untreated mice
B2: Ceramide content before application in untreated mice
Since it is known that the ceramides exist in several isomer forms, the calculation was carried out on each of the amount of total ceramide synthesis and those of syntheses of various ceramide isomers. As the standards, ceramide III (consisting of ceramides 1 and 2) and ceramide IV (consisting of ceramides 4 and 5) both manufactured by Sigma wer used. Here, total ceramide means the total of ceramides 1, 2, 4 and 5, and ceramide III means the total of ceramides 1 and 2. The ceramides 1, 2, 4 and 5 correspond to the compounds 1, 2, 4 and 5, respectively, described in FIG. 2 of Journal of Lipid Research, 24, 559 (1983).

[2] = test system: auricular edema in atopic dermatitis-induced model mice (Type I and Type IV Allergy Models); assay: Auricular edema inhibition in atopic dermatitis-induced model mice (type I and type IV allergy models, DNCB); format: in vivo, NC/Nga mouse; details: for Relative auricular edema increase (%): 3% by weight, 20 μl to both sides of auricle once a day, mean ± SD, n=6
Experimental: Test Compositions 9 and 10 were obtained by preparing 30% by weight ethanol solutions containing 0 and 3.0% by weight, respectively, of N-acetyl-trans-4-hydroxy-L-proline. The pH values of the aqueous solutions were adjusted to 4.5 with sodium hydroxide.
Atopic dermatitis using NC/Nga mice was carried out in a manner similar to the method of Fujii et al. [Fundamentals and Clinics (Kiso-to-Rinsho), 31(8), 2693 (1997)]. Auricular edema was induced by applying 20 μl of 1.5% dinitrochlorobenzene (DNCB) to both sides of the auricle of NC/Nga mouse (male, 8 week old, available from Charles River Japan, Inc.), once a day at a predetermined time in the 1st, 3rd and 7th days after starting of the test. Each of Test Compositions 9 and 10 was applied at 20 μl to both sides of the auricle as the tested region, 6 hours after the application of DNCB and once a day every day from the 1st day after starting of the test. The mice were used as six animals per each group.
Just before the application of the test compositions to the auricle on the 11th, 12th, 14th and 17th days after starting of the test, a thickness of the auricle was measured using a dial thickness gauge (G-1A, manufactured by PEACOCK), and the relative auricular edema increase (%) was calculated in accordance with the following equation.
(§1) Relative auricular edema increase (%)=[(A1×B2)/(A2×B1)]×100
(§2) A1: Thickness of auricle after passed days in tested mice
(§3) A2: Thickness of auricle at the time of starting of the test in tested mice
(§4) B1: Thickness of auricle after passed days in untreated mice
(§5) B2: Thickness of auricle at the time of starting of the test in untreated mice

[3] = test system: auricular edema in atopic dermatitis-induced model mice (Type I Allergy Model); assay: Auricular edema inhibition in atopic dermatitis-induced model mice (type I allergy model, tick extract); format: in vivo, NC/Nga mouse; details: for Relative auricular edema increase (%): 20 μl to both sides of auricle once a day from 7th day, measured on 28th day, mean ± SD, n=6
Experimental: Test Compositions 6 to 8 were obtained by preparing 30% by weight aqueous ethanol solutions containing 0, 1.0 and 3.0% by weight, respectively, of N-acetyl-trans-4-hydroxy-L-proline. The pH values of the aqueous solutions were adjusted to 4.5 with sodium hydroxide.
Atopic dermatitis using NC/Nga mice was carried out in a same manner similar to the method of Sasagawa et al. [16th Japanese Society of Disease Models (1999)]. Auricular edema was induced by intradermal injection of 20 μg of a tick (Dermatophagoides pteronyssinus) extract as the antigen into the auricle of NC/Nga mouse (male, 8 week old, available from Charles River Japan, Inc.), once a day at a predetermined time in the 1st day, 3rd day and every day from 7th days after starting of the test. Each of Test Compositions 6 to 8 was applied at 20 μl to both sides of the auricle as the tested region, 6 hours after administration of the tick extract, once a day from the 7th day after starting of the test. The mice were used as six animals per each group.
A thickness of the auricle was measured on the 28th day after starting of the test using a dial thickness gauge (G-1A, manufactured by PEACOCK), and the relative auricular edema increase (%) was calculated in accordance with the following equation.
as §1, §2, §3, §4, §5

[4] = concentration of 1 to 3% by weight, long period of continuous use

CC(=O)N1C[C@H](O)C[C@H]1C(=O)O [N-acetyl-trans-4-hydroxy-L-proline]
Relative amount of total ceramide synthesis (%) ([1]; 1% by weight in 30% aqueous ethanol pH 4.5, 200 μl to dorsal skin once a day for one month): 218.6%
Relative amount of ceramide III synthesis (%) ([1]; 1% by weight): 239.5%
Relative amount of total ceramide synthesis (%) ([1]; 3% by weight in 30% aqueous ethanol pH 4.5, 200 μl to dorsal skin once a day for one month): 170.6%
Relative amount of ceramide III synthesis (%) ([1]; 3% by weight): 321.1%
Relative amount of ceramide III synthesis (%) ([1]; 5% by weight): 209.6%
Relative amount of ceramide III synthesis (%) ([1]; 10% by weight): 185.9%
total ceramide content in the epidermal stratum corneum [1, 4]: significant increase
ceramide III in the epidermal stratum corneum ([1]; concentration of 1 to 10% by weight, long period of continuous use): significant increase
Relative auricular edema increase (%) ([2]; 11th day after starting of test): 360.1 ± 64.2%
Relative auricular edema increase (%) ([2]; 12th day after starting of test): 399.7 ± 55.9%
Relative auricular edema increase (%) ([2]; 14th day after starting of test): 429.0 ± 72.3%
Relative auricular edema increase (%) ([2]; 17th day after starting of test): 312.1 ± 50.6%
inhibition of auricular edema caused by the type I and type IV allergy models ([2]; concentration of 3% by weight, long period of continuous use): significantly inhibited
Relative auricular edema increase (%) ([3]; 1% by weight): 120.9 ± 3.5%
Relative auricular edema increase (%) ([3]; 3% by weight): 110.1 ± 4.4%
inhibition of auricular edema caused by the type I allergy model [3, 4]: significantly inhibited
